Data reported in patent US8486936B2, “Antagonist of smoothened” (AllaChem, LLC, priority 2009, dated 2013).

Each compound was assayed on Hh-signalling cascade (assay: Inhibition of SHh-stimulated alkaline phosphatase in C3H10T1/2 cells (Hh-signalling cascade IC50)). Details: Mus musculus, C3H 10T1/2, 384-well plates, triplicates, SHh protein stimulation, read-out: Activity (IC50, half maximal inhibition of stimulation of cell alkaline phosphatase by SHh).
Format: cell-based
Procedure: Version 1—manual setup, 96-well plates, dose-response, C3H/10T1/2 cells. Aim: to determine activity of Sonic Hedgehog pathway inhibitors.
• C3H/10T1/2 cells, grown in DMEM medium/10% FBS to 60-80% confluent • Assay Plates: 96-well half-area tissue culture plates Corning cat. #3697 • Tested compounds as 10 mM DMSO solutions in 96-tube racks • Recombinant Human Sonic Hedgehog (C2411) protein, RDS product #1845-SH, reconstituted at 200 μg/ml in PBS. • Lysis Buffer: 10 mM Ethanolamine Buffer (pH 8.0), 0.2% Triton-X100, supplemented 1:100 with Protease Inhibitor Cocktail (EMD Bioscience product #539134). • CSPD Alkaline Phosphatase Substrate with Emerald-II (Applied Biosystems product #T2212). • Prepare 1 Assay plate for every 4 compounds (see FIG. 1): • 1. Harvest C3H/10T1/2 cells with TrypLE Express solution according to a regular cell subculture protocol • 2. Count the cells and calculate dilution necessary to obtain cell suspension at 5×10^3 cells per 40 μl ([…]) • 3. Dilute cells with DMEM/10% FBS and distribute at 40 μl/well • 4. Place the plate(s) into the incubator and allow cells to attach for 3-5 hours • Prepare dilution plate: • 1. Designate 1 column for each compound • 2. Add 99 μl of DMEM/10% FBS to the wells in row A and 50 μl to the wells in rows B-H • 3. Add 1 μl of compound DMSO stocks to the wells in row A, mix, change the tip. • 4. Transfer […] of compound solutions in row A to the wells in row B, mix, change the tip • 5. […] Row G is a “no compound” positive control; row H is a “no Hedgehog” negative control • Add 5 μl/well of 10× compound dilutions from dilution plate to the corresponding wells in assay plates (see assay plate layout). Use 125 μl automatic repeating pipettor. • Place plates into incubator for 20-30 min. • Prepare 3 μg/ml 10× solution of Sonic Hedgehog (C24II) protein (Hh) in DMEM/10% FBS: • 1. Calculate total volume needed as 500 μl per full plate or 125 μl per each compound tested • 2. Add 1.5 μl of Hh stock solution (200 μg/ml in PBS) per each 98.5 μl of medium • Add 5 μl/well of 10× Hh solution to the wells in rows A-G, add 5 μl/well of medium to the wells in row H (see assay plate layout). Use 125 μl automatic repeating pipettor. • Place plates into incubator for 3 days. • Wash cells on plate: aspirate medium, add 100 μl/well of PBS or HBSS and aspirate again. • Add 20 μl/well of lysis buffer and incubate for 15 min. at room temperature on a shaker platform. • Transfer 7.5 μl/well of cell lysate into white opaque plates and add 45 μl/well of CSPD Alkaline Phosphatase substrate. • Cover from light and incubate for 45 min. at room temperature on a shaker platform. • Read the plate(s) on Wallac VictorV reader using Luminescence (0.1 s) protocol.
Cells C3H10T1/2 were used for identification of inhibitors of SHh-protein signaling cascade. SHh-protein activates cells C3H10T1/2, that leads to their osteogenic differentiation [1) Kinto N., Iwamoto M., Enomoto-Iwamoto M., Noji S., Ohuchi H., Yoshioka H., Kataoka H., Wada Y., Yuhao G., Takahashi H. E., Yoshiki S., Yamaguchi A. Fibroblasts expressing Sonic hedgehog induce osteoblast differentiation and ectopic bone formation. FEBS Lett. 1997; 404 (2-3): 319-23. 2) Spinella-Jaegle S., Rawadi G., Kawai S., Gallea S., Faucheu C., Mollat P., Courtois B., Bergaud B., Ramez V., Blanchet A. M., Adelmant G., Baron R., Roman-Roman S. Sonic hedgehog increases the commitment of pluripotent mesenchymal cells into the osteoblastic lineage and abolishes adipocytic differentiation. J. Cell Sci. 2001; 114 (Pt 11): 2085-94] and, in particular, to expression enhancement of alkaline phosphatase enzyme.
The cells were cultivated in DMEM medium with 10% embryonal calfish serum in incubator at 37° C., 100% humidity and 5% CO2 content. The cells were placed in 384-well plates and left for a night. […]

IC50 | SMILES
< 500 nM | COc1ccc(C(=O)Nc2ccc(-c3cn4cccc(C)c4n3)cc2)cc1OC [Cpd-013]
< 500 nM | COc1ccc(C(=O)Nc2ccc(-c3cn4cccc(C)c4n3)cc2)c(Cl)c1 [Cpd-005]
< 500 nM | COc1ccc(C(=O)Nc2ccc(-c3cn4cccc(C)c4n3)cc2)c(Br)c1 [Cpd-001]
500 to 5000 nM | Cc1cccn2cc(-c3ccc(NC(=O)c4ccccc4F)cc3)nc12 [Cpd-006]
< 500 nM | COc1ccc(C(=O)Nc2ccc(-c3cn4cccc(C)c4n3)cc2)c(F)c1 [Cpd-011]
< 500 nM | Cc1cccc(C)c1C(=O)Nc1ccc(-c2cn3cccc(C)c3n2)cc1 [Cpd-018]
5000 to 50000 nM | Cc1cccn2cc(-c3ccc(NC(=O)c4ccc(Cl)cc4Cl)cc3)nc12 [Cpd-009]
500 to 5000 nM | Cc1cccn2cc(-c3ccc(NC(=O)c4ccc(C(C)(C)C)cc4)cc3)nc12 [Cpd-015]
5000 to 50000 nM | Cc1cccn2cc(-c3ccc(NC(=O)c4ccc(C(C)C)cc4)cc3)nc12 [Cpd-014]
5000 to 50000 nM | Cc1cccn2cc(-c3ccc(NC(=O)c4ccc(F)cc4F)cc3)nc12 [Cpd-007]
500 to 5000 nM | COc1ccc(C(=O)Nc2ccc(-c3cn4cccc(C)c4n3)cc2)c(Oc2ccncc2)c1 [Cpd-004]
> 50000 nM | Cc1cccn2cc(-c3ccc(NC(=O)c4ccc(C(F)(F)F)cc4)cc3)nc12 [Cpd-016]
< 500 nM | Cc1cc(S(C)(=O)=O)ccc1C(=O)Nc1ccc(-c2cn3cccc(C)c3n2)cc1 [Cpd-020]
< 500 nM | Cc1cccn2cc(-c3ccc(NC(=O)c4ccc(S(C)(=O)=O)cc4Cl)cc3)nc12 [Cpd-002]
5000 to 50000 nM | Cc1cccn2cc(-c3ccc(NC(=O)c4ccc(-c5ccccc5)cc4)cc3)nc12 [Cpd-017]
500 to 5000 nM | CCOc1ccc(C(=O)Nc2ccc(-c3cn4cccc(C)c4n3)cc2)c(Br)c1 [Cpd-019]
< 500 nM | Cc1cccn2cc(-c3ccc(NC(=O)c4ccc(S(C)(=O)=O)cc4Br)cc3)nc12 [Cpd-003]
500 to 5000 nM | Cc1cccn2cc(-c3ccc(NC(=O)c4ccc5c(c4)OCO5)cc3)nc12 [Cpd-012]
500 to 5000 nM | CCc1cccn2cc(-c3ccc(NC(=O)c4ccc(F)cc4F)cc3)nc12 [Cpd-008]
< 500 nM | CCOc1ccc(C(=O)Nc2ccc(-c3cn4cccc(C)c4n3)cc2)c(Cl)c1 [Cpd-010]
